Article PMC2568900 (Biochemistry, 2008)
Entries after “also recorded” stand apart in the source; their conditions may differ.

Tests used:
[1] = target: L2 binding to PDHK2-N247Q (Rattus norvegicus, UniProt Q64536, N255Q); assay: GST-L2 pull-down; details: PDHK2-N247Q (cannot bind nucleotides); nucleotides 10 mM each
[2] = target: T1, PDHK2-T302A (Rattus norvegicus, UniProt Q64536, T310A); assay: Isothermal titration calorimetry of L2 binding; details: ITC, 10 mM ATP
[3] = target: PDHK2-wt (Rattus norvegicus, UniProt Q64536); assay: ATP, ADP and DCA binding by quenching of intrinsic tryptophan fluorescence
[4] = target: T2, PDHK2-Y320F (Rattus norvegicus, UniProt Q64536, Y328F); assay: as above; details: for Qmax: quenching caused by the varied ligand
[5] = target: T1, PDHK2-T302A; assay: as above
[6] = target: PDHK2-R250A (Rattus norvegicus, UniProt Q64536, R258A); assay: as above
[7] = tested on: PDHK2-Y320F bound to L2; assay: GST-L2 pull-down; assay type: binding, rat; details: for effect on amount of kinase bound to L2: nucleotide 0.5 mM
[8] = target: T2, PDHK2-Y320F; assay: Kinase activity assay; assay type: biochemical; details: standard phosphorylation assay
[9] = target: T3, wild-type PDHK2 (Rattus norvegicus, UniProt Q64536); assay: biochemical
[10] = target: T3, wild-type PDHK2; details: control, wide range of concentrations
[11] = PDHK2-wt, no fixed ligand, 25 °C
[12] = PDHK2-wt, fixed ligand DCA (0.5 mM)

Nc1ncnc2c1ncn2[C@@H]1O[C@H](COP(=O)(O)OP(=O)(O)OP(=O)(O)O)[C@@H](O)[C@H]1O [ATP]
effect on L2 binding [1]: did not exert any nonspecific effects | effect on L2 binding [2]: little, if any, effect | Qmax (extrapolated maximal quenching) ([3]; PDHK2-wt, no fixed ligand): 37 ± 1% | nH (Hill coefficient) ([3]; PDHK2-wt, no fixed ligand): 1.9 ± 0.1 | Kd [3, 11]: 2.5 ± 0.4 µM | Qmax (extrapolated maximal quenching) ([4]; no fixed ligand): 32 ± 1% | nH (Hill coefficient) ([4]; no fixed ligand): 2.4 ± 0.1 | Kd ([4]; no fixed ligand, 25 °C): 1.7 ± 0.1 µM | decrease in affinity relative to wild-type PDHK2 [5]: more than 20 fold | Qmax (extrapolated maximal quenching) ([5]; no fixed ligand): 23 ± 1% | nH (Hill coefficient) ([5]; no fixed ligand): 1.5 ± 0.1 | Kd ([5]; no fixed ligand, 25 °C): 60 ± 1 µM | decrease in affinity relative to wild-type PDHK2 [6]: > 30 fold | Qmax (extrapolated maximal quenching) ([6]; no fixed ligand): 29 ± 1% | nH (Hill coefficient) ([6]; no fixed ligand): 1.0 ± 0.1 | Kd ([6]; no fixed ligand, 25 °C): 80 ± 1 µM | effect on amount of kinase bound to L2 [7]: significant decrease

Nc1ncnc2c1ncn2[C@@H]1O[C@H](COP(=O)(O)OP(=O)(O)O)[C@@H](O)[C@H]1O [ADP]
effect on L2 binding [1]: did not exert any nonspecific effects | Kd [3, 12]: 2 ± 0.1 µM | nH [3, 12]: 2.2 ± 0.1 | Qmax ([3]; PDHK2-wt, fixed ligand DCA (0.5 mM), quenching caused by the varied ligand): 39 ± 1% | Qmax (extrapolated maximal quenching) ([3]; PDHK2-wt, no fixed ligand): 31 ± 1% | nH (Hill coefficient) ([3]; PDHK2-wt, no fixed ligand): 1.5 ± 0.2 | Kd [3, 11]: 10.6 ± 0.5 µM | increase in affinity for ADP in the presence of DCA ([3]; wild-type PDHK2, 0.5 mM DCA): approximately 5 times | increase in affinity for ADP by DCA (factor) ([4]; 0.5 mM DCA): 3.5 | Kd ([4]; fixed ligand DCA (0.5 mM)): 2.5 ± 0.2 µM | nH ([4]; fixed ligand DCA (0.5 mM)): 1.9 ± 0.1 | Qmax ([4]; fixed ligand DCA (0.5 mM)): 37 ± 1% | Qmax (extrapolated maximal quenching) ([4]; no fixed ligand): 24 ± 1% | nH (Hill coefficient) ([4]; no fixed ligand): 1.4 ± 0.1 | Kd ([4]; no fixed ligand, 25 °C): 8.9 ± 0.1 µM | effect on amount of kinase bound to L2 [7]: significant decrease

O=C(O)C(Cl)Cl [DCA, dichloroacetate]
effect on kinase activity [8]: neither of the mutant kinases displayed an effect of DCA that would significantly exceed that of sodium acetate; also recorded: did not display an appreciable inhibitory effect; also recorded: no appreciable effect | Kd ([3]; Kd, PDHK2-wt, no fixed ligand, 25 °C): 226 ± 7 µM | Kd ([4]; Kd, fixed ligand ADP (50 μM)): 33 ± 1 µM | Kd ([4]; Kd, no fixed ligand, 25 °C): 292 ± 10 µM | Qmax ([4]; fixed ligand ADP (50 μM)): 29 ± 1% | Kd ([5]; Kd, fixed ligand ADP (50 μM)): 249 ± 9 µM | Kd ([5]; Kd, fixed ligand ADP (500 μM)): 103 ± 1 µM | Kd ([5]; Kd, no fixed ligand, 25 °C): 320 ± 20 µM | IC50 [9]: ~690 µM | Kd ([6]; Kd, fixed ligand ADP (50 μM)): 161 ± 4 µM | Kd ([6]; Kd, fixed ligand ADP (500 μM)): 59 ± 1 µM | Kd ([6]; Kd, no fixed ligand, 25 °C): 312 ± 25 µM | effect on L2 binding, added alone ([7]; DCA 1 mM alone): little, if any, influence | effect on L2 binding, in combination with ATP or ADP ([7]; DCA 1 mM with 0.5 mM ATP or ADP): potentiated the effects of adenine nucleotides

CC(=O)[O-].[Na+] [sodium acetate]
effect on kinase activity [10]: slight decrease in PDHK2 activity
